# Source: the NIST ThermoML archive (doi:10.1021/je800503d)
# Numbers after ± are expanded uncertainties.
# Conditions: 298.15 K; 101.33 kPa; Liquid; Vibrating tube method
row,mass density,Compound
1,770.01 ± 0.24 kg/m3,CCCCCCCCCCCCCCCC [hexadecane]
2,1006.2 ± 0.24 kg/m3,"COCCOCCOCCOCCOC [2,5,8,11,14-pentaoxapentadecane]"
3,980.42 ± 0.23 kg/m3,"COCCOCCOCCOC [2,5,8,11-tetraoxadodecane]"
4,785.04 ± 0.13 kg/m3,CCO [ethanol]
